Reference: US20170051149A1, “AZOARYLS AS REVERSIBLY MODULATABLE TUBULIN INHIBITORS” (ECOLE NORMALE SUPERIEURE DE LYON, priority 2014, published 2017)

System: MDA-MB-231 cells
Assay: in cellulo tubulin imaging, immunostaining of microtubule cytoskeleton
Assay type: cell-based
Conditions: 20 h; for effect on microtubule structure: 390 nm regimen (200 ms every 2 min)
Protocol: In order to investigate the influence of compound I.1 on microtubule structure in cellulo, immunostaining of the microtubule cytoskeleton in MDA-MB-231 cells was performed. Cells were treated with compound I.1 and then kept in dark conditions, or exposed to 390 nm light (200 ms every 2 min), or exposed to a rescue protocol with sequential pulses of 390 nm light (200 ms every 2 min) then immediately 505 nm (600 ms every 2 min). After 20 h of treatment cells were fixed, stained and subjected to confocal microscopy.
Briefly, prior to analysis, cells were washed with pre-warmed PBS then cell extraction buffer (80 mM piperazine-N,N′-bis(2-ethanesulfonic acid) [abbreviated PIPES], 1 mM MgCl2, 5 mM EGTA-K and 0.5% Triton X-100, at pH 6.8) was added to remove monomeric and dimeric tubulin subunits. After 30 s of extraction, cells were fixed for 10 min with 0.5% glutaraldehyde. Following glutaraldehyde quenching with 0.1% NaBH4 in PBS for 7 min, coverslips were blocked with PBS containing 0.2% BSA (bovine serum albumin). Immunostaining was performed using anti-α-tubulin antibody (ab18251) and the AlexaFluor 488 secondary antibody (A 11008), purchased from Abcam (Cambridge, UK) and Invitrogen (Darmstadt, Germany), respectively. Hoechst 33342 (bisbenzimide), purchased from Sigma-Aldrich (catalogue number B2261; Taufkirchen, Germany), was used at a concentration of 1 ug/ml for nuclear staining. Cells were mounted with PermaFluor™ mounting medium (Beckman Coulter) and analyzed with a Zeiss LSM 510 Meta confocal microscope (Jena, Germany). Acquired images were processed using the ImageJ program (National Institutes of Health) and representative images are collected in FIG. 7.

SMILES: COc1ccc(N=Nc2cc(OC)c(OC)c(OC)c2)cc1O [I.1, 2-methoxy-5-((3,4,5-trimethoxyphenyl)diazenyl)phenol]
- effect on microtubule structure (1.5 μM): degradation of the microtubule cytoskeleton
- effect on microtubule structure (4 μM): complete microtubule breakdown plus fragmentation of the nuclei
- nuclear fragmentation and microtubule destruction (kept in the dark): not observed
- effect of rescue protocol on signs of cytotoxic effects (rescue: 390 nm (200 ms) then 505 nm (600 ms) every 2 min): dose-dependent reduction of the signs of cytotoxic effects
